Experimental data published in ChEMBL document CHEMBL6071196, “Semisynthetic Tetramate-Containing Fungal Metabolites with Activity against Trichomonas vaginalis and Mycoplasma genitalium” (ACS Med Chem Lett, 2024).
Converted amounts (≈) assume the structure as drawn.

Columns and labels:
[1] = tested on: Mycoplasma genitalium; experiment: Antibacterial activity against Mycoplasma genitalium G37C assessed as bacterial growth inhibition incubated for 7 days by phenol red reagent based microbroth dilution assay; type: functional; conditions: Mycoplasmoides genitalium, 168 h, time 7 day
[2] = tested on: Trichomonas vaginalis; experiment: Anti-trichomonal activity against Trichomonas vaginalis assessed as inhibition of parasite growth incubated for 18 hrs; type: functional, organism-based
[3] = Selectivity index, ratio of IC50 for cytotoxicity against african green monkey Vero cells incubated for 48 hrs by celltiter blue assay to MIC for antibacterial activity against Mycoplasma genitalium G37C assessed as bacterial growth inhibition incubated for 7 days by phenol red reagent based microbroth dilution assay; type: toxicity, cell-based; conditions: read-out: Selectivity Index

| SMILES | MIC90 [1] | EC50 [2] | selectivity ratio at 48 h [3] |
| --- | --- | --- | --- |
| C/C=C/C=C/[C@H]1C(C)=C[C@H]2C[C@@H](C)CC[C@@H]2[C@@]1(C)/C(O)=C1\C(=O)[C@H](COCc2cn(CCCO)nn2)N(C)C1=O | 22.6 µM (≈ 12.5 µg/mL) | > 10 µM | – |
| C/C=C/C=C/[C@H]1C(C)=C[C@H]2C[C@@H](C)CC[C@@H]2[C@@]1(C)/C(O)=C1\C(=O)[C@@H](COCc2cn(Cc3cc(C)cc(C)c3)nn2)N(C)C1=O | 20.4 µM (≈ 12.5 µg/mL) | > 10 µM | – |
| C/C=C/C=C/[C@H]1C(C)=C[C@H]2C[C@@H](C)CC[C@@H]2[C@@]1(C)C(=O)[C@H]1C(=O)N(C)[C@H](CO)[C@H]1O | 7.5 µM (≈ 3.12 µg/mL) | > 10 µM | 2.8 |
| C/C=C/C=C/[C@H]1C(C)=C[C@H]2C[C@@H](C)CC[C@@H]2[C@@]1(C)/C(O)=C1\C(=O)[C@H](COCc2cn(CC3CCCCO3)nn2)N(C)C1=O (stereo not given in full) | 5.2 µM (≈ 3.08 µg/mL) | > 10 µM | 4.4 |
| CC1=C[C@H]2C[C@@H](C)CC[C@@H]2[C@@](C)(/C(O)=C2\C(=O)[C@H](COCc3cn(CCO)nn3)N(C)C2=O)[C@H]1/C=C/C=C/C[C@@H](C)O | > 40 µM | > 10 µM | – |
| CC1=C[C@H]2C[C@@H](C)CC[C@@H]2[C@@](C)(/C(O)=C2\C(=O)[C@@H](CO)N(C)C2=O)[C@H]1/C=C/[C@@H](O)[C@@H](C)O | 12.5 µM (≈ 5.59 µg/mL) | > 10 µM | – |
| C/C=C/C=C/[C@H]1C(C)=C[C@H]2C[C@@H](C)CC[C@@H]2[C@@]1(C)/C(O)=C1\C(=O)[C@@H](COCc2cn(CC3CCCO3)nn2)N(C)C1=O (stereo not given in full) | 12.5 µM (≈ 7.23 µg/mL) | 5.4 µM | – |
| C/C=C/C=C/[C@H]1C(C)=C[C@H]2C[C@@H](C)CC[C@@H]2[C@@]1(C)/C(O)=C1\C(=O)[C@@H](COCc2cn(CC3CCCC3)nn2)N(C)C1=O | 10.9 µM (≈ 6.29 µg/mL) | > 10 µM | – |
| C/C=C/C=C/[C@H]1C(C)=C[C@H]2C[C@@H](C)CC[C@@H]2[C@@]1(C)/C(O)=C1\C(=O)[C@H](COCc2cn(CCCCO)nn2)N(C)C1=O | 22.1 µM (≈ 12.5 µg/mL) | > 10 µM | – |
| C/C=C/C=C/[C@H]1C(C)=C[C@H]2C[C@@H](C)CC[C@@H]2[C@@]1(C)/C(O)=C1\C(=O)[C@@H](COCc2cn(CCCO)nn2)N(C)C1=O | 22.6 µM (≈ 12.5 µg/mL) | > 10 µM | – |
| C/C=C/C=C/[C@H]1C(C)=C[C@H]2C[C@@H](C)CC[C@@H]2[C@@]1(C)/C(O)=C1\C(=O)[C@H](COCc2cn(CCCCC)nn2)N(C)C1=O | 22.1 µM (≈ 12.5 µg/mL) | > 10 µM | – |
| C#CCOC[C@@H]1C(=O)/C(=C(/O)[C@@]2(C)[C@@H](/C=C/C=C/C)C(C)=C[C@H]3C[C@@H](C)CC[C@@H]32)C(=O)N1C | 14 µM (≈ 6.32 µg/mL) | > 10 µM | – |
| CC1=C[C@H]2C[C@@H](C)CC[C@@H]2[C@@](C)(/C(O)=C2\C(=O)[C@@H](COCc3cn(Cc4ccc(C(=O)O)cc4)nn3)N(C)C2=O)[C@H]1/C=C/C=C/C[C@@H](C)O | 37 µM (≈ 24.9 µg/mL) | > 10 µM | – |
| CC1=C[C@H]2C[C@@H](C)CC[C@@H]2[C@@](C)(/C(O)=C2\C(=O)[C@@H](COCc3cn(CC4CCCCO4)nn3)N(C)C2=O)[C@H]1/C=C/C=C/C[C@@H](C)O (stereo not given in full) | 19.6 µM (≈ 12.5 µg/mL) | > 10 µM | – |
| C/C=C/C=C/[C@H]1C(C)=C[C@H]2C[C@@H](C)CC[C@@H]2[C@@]1(C)/C(O)=C1\C(=O)[C@@H](COCc2cn(CCc3ccc(O)cc3)nn2)N(C)C1=O | 5 µM (≈ 3.07 µg/mL) | > 10 µM | 6.1 |
| C/C=C/C=C/[C@H]1C(C)=C[C@H]2C[C@@H](C)CC[C@@H]2[C@@]1(C)/C(O)=C1\C(=O)[C@@H](COCc2cn(Cc3c[nH]c4ccccc34)nn2)N(C)C1=O | 4.9 µM (≈ 3.06 µg/mL) | > 10 µM | 17.9 |
| C/C=C/C=C/[C@H]1C(C)=C[C@H]2C[C@@H](C)CC[C@@H]2[C@@]1(C)/C(O)=C1\C(=O)[C@@H](COCc2ccccc2)N(C)C1=O | 24.8 µM (≈ 12.5 µg/mL) | > 10 µM | – |
| C/C=C/C=C/[C@H]1C(C)=C[C@H]2C[C@@H](C)CC[C@@H]2[C@@]1(C)/C(O)=C1\C(=O)[C@@H](COCC=C(C)C)N(C)C1=O | 6.4 µM (≈ 3.08 µg/mL) | > 10 µM | 8.8 |
| C/C=C/C=C/[C@H]1C(C)=C[C@H]2C[C@@H](C)CC[C@@H]2[C@@]1(C)/C(O)=C1\C(=O)[C@@H](COCc2cn(CCCCC)nn2)N(C)C1=O | 22.1 µM (≈ 12.5 µg/mL) | > 10 µM | – |
| C/C=C/C=C/[C@H]1C(C)=C[C@H]2C[C@@H](C)CC[C@@H]2[C@@]1(C)[C@@H](O)[C@H]1C(=O)N(C)[C@H](CO)[C@H]1O | 30.1 µM (≈ 12.6 µg/mL) | > 10 µM | – |

| SMILES | MIC90 [1] | EC50 [2] | selectivity ratio at 48 h [3] |
| --- | --- | --- | --- |
| C/C=C/C=C/[C@H]1C(C)=C[C@H]2C[C@@H](C)CC[C@@H]2[C@@]1(C)/C(O)=C1\C(=O)[C@@H](COC)N(C)C1=O | 3.7 µM (≈ 1.58 µg/mL) | > 10 µM | 6.7 |
| C/C=C/C=C/[C@H]1C(C)=C[C@H]2C[C@@H](C)CC[C@@H]2[C@@]1(C)/C(O)=C1\C(=O)[C@H](CO)N(C)C1=O | 25 µM (≈ 10.3 µg/mL) | > 10 µM | – |
| C/C=C/C=C/[C@H]1C(C)=C[C@H]2C[C@@H](C)CC[C@@H]2[C@@]1(C)/C(O)=C1\C(=O)[C@H](COCc2cn(CC3CCCC3)nn2)N(C)C1=O | 5.4 µM (≈ 3.11 µg/mL) | > 10 µM | 7.9 |
| CC1=C[C@H]2C[C@@H](C)CC[C@@H]2[C@@](C)(/C(O)=C2\C(=O)[C@H](COCc3cn(CCc4ccc(O)cc4)nn3)N(C)C2=O)[C@H]1/C=C/C=C/C[C@@H](C)O | 9.8 µM (≈ 6.46 µg/mL) | > 10 µM | 12.1 |
| C/C=C/C=C/[C@H]1C(C)=C[C@H]2C[C@@H](C)CC[C@@H]2[C@@]1(C)/C(O)=C1\C(=O)[C@H](COCc2cn(CCO)nn2)N(C)C1=O | 5.8 µM (≈ 3.12 µg/mL) | > 10 µM | 9.7 |
| C/C=C/C=C/[C@H]1C(C)=C[C@H]2C[C@@H](C)CC[C@@H]2[C@@]1(C)/C(O)=C1\C(=O)[C@H](COCc2cn(Cc3c[nH]c4ccccc34)nn2)N(C)C1=O | 9.9 µM (≈ 6.18 µg/mL) | > 10 µM | 2.5 |
| C/C=C/C=C/[C@H]1C(C)=C[C@H]2C[C@@H](C)CC[C@@H]2[C@@]1(C)/C(O)=C1\C(=O)[C@@H](COC(C)=O)N(C)C1=O | 12.5 µM (≈ 5.69 µg/mL) | > 10 µM | – |
| CC1=C[C@H]2C[C@@H](C)CC[C@@H]2[C@@](C)(/C(O)=C2\C(=O)[C@@H](COCc3cn(CCO)nn3)N(C)C2=O)[C@H]1/C=C/C=C/C[C@@H](C)O | 10.8 µM (≈ 6.29 µg/mL) | > 10 µM | 6.5 |
| C/C=C/[C@@H]1C=C[C@@H]2C[C@H](C)CC[C@H]2[C@]1(C)/C(O)=C1\C(=O)[C@@H](CO)N(C)C1=O | 2.1 µM (≈ 0.784 µg/mL) | > 10 µM | 11.5 |
| C/C=C/C=C/[C@H]1C(C)=C[C@H]2C[C@@H](C)CC[C@@H]2[C@@]1(C)/C(O)=C1\C(=O)[C@H](COCc2cn(CC3CCCO3)nn2)N(C)C1=O (stereo not given in full) | 12.5 µM (≈ 7.23 µg/mL) | > 10 µM | – |
| C/C=C/C=C/[C@H]1C(C)=C[C@H]2C[C@@H](C)CC[C@@H]2[C@@]1(C)/C(O)=C1/C(=O)N[C@@H](CO)C1=O | 62.6 µM (≈ 25 µg/mL) | > 10 µM | – |
| C/C=C/C=C/[C@H]1C(C)=C[C@H]2C[C@@H](C)CC[C@@H]2[C@@]1(C)/C(O)=C1\C(=O)[C@H](COCc2cn(Cc3cc(C)cc(C)c3)nn2)N(C)C1=O | 20.4 µM (≈ 12.5 µg/mL) | > 10 µM | – |
| CC1=C[C@H]2C[C@@H](C)CC[C@@H]2[C@@](C)(/C(O)=C2\C(=O)[C@@H](CO)N(C)C2=O)[C@H]1/C=C/[C@H](O)[C@H](C)O | > 50 µM | > 10 µM | – |
| CC1=C[C@H]2C[C@@H](C)CC[C@@H]2[C@@](C)(/C(O)=C2\C(=O)[C@@H](COCc3cn(CCc4ccc(O)cc4)nn3)N(C)C2=O)[C@H]1/C=C/C=C/C[C@@H](C)O | 38.8 µM (≈ 25.6 µg/mL) | 5.4 µM | – |
| C/C=C/C=C/[C@H]1C(C)=C[C@H]2C[C@@H](C)CC[C@@H]2[C@@]1(C)/C(O)=C1\C(=O)[C@H](COCc2cn(Cc3ccc(C(=O)O)cc3)nn2)N(C)C1=O | > 25 µM | 7.5 µM | – |
| CC1=C[C@H]2C[C@@H](C)CC[C@@H]2[C@@](C)(/C(O)=C2\C(=O)[C@H](COCc3cn(Cc4ccc(C(=O)O)cc4)nn3)N(C)C2=O)[C@H]1/C=C/C=C/C[C@@H](C)O | > 37 µM | > 10 µM | – |
| CC1=C[C@H]2C[C@@H](C)CC[C@@H]2[C@@](C)(/C(O)=C2\C(=O)[C@H](CO)N(C)C2=O)[C@H]1/C=C/C=C/C[C@@H](C)O | 6.8 µM (≈ 3.11 µg/mL) | > 10 µM | – |
| C/C=C/C=C/[C@H]1C(C)=C[C@H]2C[C@@H](C)CC[C@@H]2[C@@]1(C)/C(O)=C1\C(=O)[C@@H](COCc2cn(CCCCO)nn2)N(C)C1=O | 11.1 µM (≈ 6.29 µg/mL) | > 10 µM | – |
| C/C=C/C=C/[C@H]1C(C)=C[C@H]2C[C@@H](C)CC[C@@H]2[C@@]1(C)/C(O)=C1\C(=O)[C@@H](COCc2cn(CCO)nn2)N(C)C1=O | 23.2 µM (≈ 12.5 µg/mL) | > 10 µM | – |
